Data on 34 compounds can be found in a melting point compilation (Tetko et al.; mined from patent text by program, amines drawn as free bases though some values may be those of a salt).

As to `O=C(c1csc2ccccc12)C1CCN(CCc2ccccc2)CC1`, the melting point lay within 110 to 112 °C.

As to `Nc1cc(Cl)c(Cl)c(Br)c1[N+](=O)[O-]`, the melting point fell in the range of 132 to 134 °C.

In turn, `Cc1occc1C(=O)Nc1ccc(C(=O)N2Cc3ccccc3Cc3ccccc32)cc1` came in with a melting point of 202 to 204 °C.

`CN(c1cccc2cc(C3=NCC(CCN)S3)[nH]c12)S(=O)(=O)c1cccs1` (centres undefined) returned a melting point of 172 to 174 °C.

For the compound `CC(=O)NS(=O)(=O)c1ccc(C2=C(c3ccccc3)C(=O)C(C)(C)O2)cc1Cl`, the melting point lay within 194 to 195 °C.

`Cc1ccc(S(=O)(=O)n2c(I)cc3cccnc32)cc1`: the melting point is 105 to 107 °C.

The compound `OCc1cccc(C(O)(C(F)(F)F)C(F)(F)F)n1` registered a melting point of 62 to 63 °C.

Compound `CCOC(=O)c1c(Cn2cncn2)nc2cc(OC)c(OC)cc2c1-c1ccc(OC)c(OC)c1` registered a melting point of 176 to 177 °C.

Regarding `O=C1c2ccccc2CN1C1CCN(Cc2ccccc2)CC1`, the melting point is 116 to 118 °C.

`Cc1nnc2cnc(-c3ccccc3)cn12`: the melting point was 192 to 195 °C.

Turning to `CC(=O)c1ccc2[nH]c(C(=O)c3ccc(Cl)cc3)c(CC(=O)O)c2c1`, the melting point turned out to be 225 °C.

As for `CC(=O)Oc1cc(C(C)=O)cc(C#N)c1OC(C)=O`, the melting point was 76 to 79 °C.

`CC1(C)C=Nc2cc3[nH]c(-c4ccncc4)cc3cc21` registered a melting point of more than 300 °C.

As for `C[C@@H](N1CC(=O)N(c2ccc(OC(F)(F)C(F)F)cc2)CC1=O)[C@@]1(c2ccc(F)cc2F)CO1`, the melting point was 168 to 170 °C.

On to `Cc1ccc(OC2COc3ccc(OCc4ccc5cc(F)ccc5n4)cc3C2O)cn1` (centres undefined), for which the melting point was 164 to 165 °C.

Regarding `COc1cc(OC)c2c(=O)cc(-c3nc4ccccc4[nH]3)oc2c1`, the melting point lay within 245 to 246 °C.

Turning to `COC(=O)CC1=C(C)/C(=C/c2ccc(SC)cc2)c2ccc(F)cc21`, the melting point fell in the range of 73 to 75 °C.

For the compound `CC1N=C(c2ccccc2)c2ccccc2NC1=O` (centres undefined), the melting point lay within 160 to 162 °C.

The compound `Cc1ccn(-c2ccc(C(=O)N3Cc4ccc(CN(C)C)n4Cc4ccccc43)c(Cl)c2)n1` returned a melting point of 100 to 102 °C.

Take `Brc1ccc2c(Sc3ccccc3)c[nH]c2c1`: the melting point is 145 to 148 °C.

Regarding `Nc1ccc(OCC2COCCO2)cc1` (centres undefined), the melting point is 86 to 87 °C.

Compound `O=C(Nc1cccc2c1C(=O)N(C1CCN(c3ccncc3)CC1)C2=O)c1ccc(Cl)s1` gave a melting point of 214 °C.

The compound `CS(=O)c1ccc(OCc2ccccc2)c(CCCc2ccc(C(=O)NCCO)cc2)c1` (centres undefined) gave a melting point of 105 to 108 °C.

Compound `O=C1Nc2nncn2CC1c1ccccc1` (centres undefined) had a melting point of 184 to 186 °C.

On to `Cc1cc(C(C)(C)O)ccc1-c1ccccc1`, for which the melting point was in the range of 60 to 64 °C.

Consider `Cn1cc(-c2cc(-c3cnc4ccccc4c3)ccn2)n(-c2ccc(C(C)(C)CN)cc2)c1=O`, for which the melting point amounted to 132 °C.

On to `Cc1ccc(N2C(=O)c3ccccc3C2=O)c(O)c1`, for which the melting point fell in the range of 251 to 254 °C.

The compound `CS(=O)(=O)N1CCn2c(nc3c(N)nc4cc(Br)ccc4c32)C1` displayed a melting point of 315 to 317 °C.

Consider `O=C1N(N2CCCCC2)c2ccccc2C1(Cc1ccnc(F)c1)c1ccccc1` (centres undefined), for which the melting point fell in the range of 129 to 132 °C.

For `CCCc1ccc(S(=O)(=O)n2c(CCC(=O)O)cc3cc(Cl)ccc32)cc1`, the melting point was 144 to 148 °C.

As for `CCOC(=O)c1c(CCCn2cncn2)nc2cc(OC)c(OC)cc2c1-c1ccc(OC)c(OC)c1`, the melting point lay in the range of 141 to 142 °C.

The compound `Cc1c(C(=O)OC(C)(C)C)oc2cccc(O)c12` had a melting point of 158 to 159 °C.

`COc1cc2c(cc1OC)N(C)C(=O)CN=C2c1cncc2ccccc12` yielded a melting point of 131 to 135 °C.

With `Cc1ccc(Sc2cc(C#N)ccc2C#N)cc1`, the melting point was 155 °C.

One may read the melting point as the temperature, or range, at which the solid turns liquid.
